Laboratory results as given in patent US7811797B2, “α-isomaltosylglucosaccharide-forming enzyme, process and uses of the same” (Kabushiki Kaisha Hayashibara Seibutsu Kagaku Kenkyujo, priority 2000, dated 2010).

How the values were obtained:
Parameters in all cases: key: −: no saccharide-transferred product was detected through transfer reaction to acceptor; ∀: a saccharide-transferred product was detected in an amount less than one percent through transfer reaction to acceptor; +: a saccharide-transferred product was detected in an amount over one percent but less than ten percent through transfer reaction to acceptor; ++: a saccharide-transferred product was detected in an amount over ten percent through transfer reaction to acceptor
[1] = tested on: α-isomaltosylglucosaccharide-forming enzyme; assay: Transfer-acceptor specificity, Enzyme of Strain C11; type: biochemical, Bacillus globisporus C11; settings: acceptor 1.6%, PINE-DEX #100 donor 4%, one unit/g donor, 30° C., pH 6.0, 24 hours
Experimental: (§1) Using different saccharides, it was tested whether the saccharides were used as transferring-acceptors for the α-isomaltosylglucosaccharide-forming enzyme of the present invention. A solution of D-glucose, D-xylose, L-xylose, D-galactose, D-fructose, D-mannose, D-arabinose, D-fucose, D-psicose, L-sorbose, L-rhamnose, methyl-α-glucopyranoside, methyl-β-glucopyranoside, N-acetyl-glucosamine, sorbitol, trehalose, isomaltose, isomaltotriose, cellobiose, gentibiose, glycerol, maltitol, lactose, sucrose, α-cyclodextrin, β-cyclodextrin, γ-cyclodextrin, or L-ascorbic acid was prepared.
(§2) To each solution with a saccharide concentration of 1.6% was added “PINE-DEX #100”, a partial starch hydrolysate, as a saccharide donor, to give a concentration of 4%, and admixed with one unit/g saccharide donor, d.s.b., of either of purified specimens of α-isomaltosylglucosaccharide-forming enzyme from Bacillus globisporus C9 obtained by the method in Experiment 4-2, Bacillus globisporus C11 obtained by the method in Experiment 7-2, Bacillus globisporus N75 obtained by the method in Experiment 11-2, or Arthrobacter globiformis A19 obtained by the method in Experiment 15-2, and incubated at 30° C. and pH 6.0, except that pH 8.4 was used for the enzyme from Arthrobacter globiformis A19, for 24 hours. The reaction mixtures of the post-enzymatic reactions were analyzed on gas chromatography (abbreviated as “GLC” hereinafter) for monosaccharides and disaccharides as acceptors, and on HPLC for trisaccharides as acceptors to confirm whether these saccharides could be used as their transfer acceptors. In the case of performing GLC, the following apparatuses and conditions are used: GLC apparatus, “GC-16A” commercialized by Shimadzu Corporation, Tokyo, Japan; column, a stainless-steel column, 3 mm in diameter and 2 m in length, packed with 2% “SILICONE OV-17/[…]”, commercialized by GL Sciences Inc., Tokyo, Japan; carrier gas, nitrogen gas at a flow rate of 40 ml/min under temperature conditions of increasing from 160° C. to 320° C. at an increasing temperature rate of 7.5° C./min; and detection, a hydrogen flame ionization detector. In the case of HPLC analysis, the apparatuses and conditions used are: HPLC apparatus, “CCPD” commercialized by Tosoh Corporation, Tokyo, Japan; column, “ODS-AQ-303” commercialized by YMC Co., Ltd., Tokyo, Japan; eluent, water at a flow rate of 0.5 ml/min; and detection, a differential refractometer.

[2] = tested on: α-isomaltosylglucosaccharide-forming enzyme; assay: Transfer-acceptor specificity, Enzyme of Strain N75; type: biochemical, Bacillus globisporus N75; settings: acceptor 1.6%, PINE-DEX #100 donor 4%, one unit/g donor, 30° C., pH 6.0, 24 hours
Experimental: as §1, §2

[3] = tested on: α-isomaltosylglucosaccharide-forming enzyme; assay: Transfer-acceptor specificity, Enzyme of Strain C9; type: biochemical, Bacillus globisporus C9; settings: acceptor 1.6%, PINE-DEX #100 donor 4%, one unit/g donor, 30° C., pH 6.0, 24 hours
Experimental: as §1, §2

[4] = tested on: α-isomaltosylglucosaccharide-forming enzyme; assay: Transfer-acceptor specificity, Enzyme of Strain A19; type: biochemical, Arthrobacter globiformis A19; settings: acceptor 1.6%, PINE-DEX #100 donor 4%, one unit/g donor, 30° C., pH 8.4, 24 hours
Experimental: as §1, §2

Row | SMILES | Product of transferring reaction, Enzyme of Strain C11 [1] | Product of transferring reaction, Enzyme of Strain N75 [2] | Product of transferring reaction, Enzyme of Strain C9 [3] | Product of transferring reaction, Enzyme of Stain A19 [4]
1 | O=C[C@@H](O)[C@H](O)[C@H](O)CO [D-Arabinose] | ∀ (a saccharide-transferred product was detected in an amount less than one percent through transfer reaction to acceptor) | ∀ (a saccharide-transferred product was detected in an amount less than one percent through transfer reaction to acceptor) | ∀ (a saccharide-transferred product was detected in an amount less than one percent through transfer reaction to acceptor) | ∀ (a saccharide-transferred product was detected in an amount less than one percent through transfer reaction to acceptor)
2 | O=C(CO)[C@@H](O)[C@H](O)[C@H](O)CO [D-Fructose] | + (a saccharide-transferred product was detected in an amount over one percent but less than ten percent through transfer reaction to acceptor) | + (a saccharide-transferred product was detected in an amount over one percent but less than ten percent through transfer reaction to acceptor) | + (a saccharide-transferred product was detected in an amount over one percent but less than ten percent through transfer reaction to acceptor) | + (a saccharide-transferred product was detected in an amount over one percent but less than ten percent through transfer reaction to acceptor)
3 | C[C@@H](O)[C@H](O)[C@H](O)[C@@H](O)C=O [D-Fucose] | + (a saccharide-transferred product was detected in an amount over one percent but less than ten percent through transfer reaction to acceptor) | + (a saccharide-transferred product was detected in an amount over one percent but less than ten percent through transfer reaction to acceptor) | + (a saccharide-transferred product was detected in an amount over one percent but less than ten percent through transfer reaction to acceptor) | ∀ (a saccharide-transferred product was detected in an amount less than one percent through transfer reaction to acceptor)
4 | O=C[C@H](O)[C@@H](O)[C@@H](O)[C@H](O)CO [D-Galactose] | + (a saccharide-transferred product was detected in an amount over one percent but less than ten percent through transfer reaction to acceptor) | + (a saccharide-transferred product was detected in an amount over one percent but less than ten percent through transfer reaction to acceptor) | + (a saccharide-transferred product was detected in an amount over one percent but less than ten percent through transfer reaction to acceptor) | ∀ (a saccharide-transferred product was detected in an amount less than one percent through transfer reaction to acceptor)
5 | O=C[C@H](O)[C@@H](O)[C@H](O)[C@H](O)CO [D-Glucose, reference compound] | + (a saccharide-transferred product was detected in an amount over one percent but less than ten percent through transfer reaction to acceptor) | + (a saccharide-transferred product was detected in an amount over one percent but less than ten percent through transfer reaction to acceptor) | + (a saccharide-transferred product was detected in an amount over one percent but less than ten percent through transfer reaction to acceptor) | + (a saccharide-transferred product was detected in an amount over one percent but less than ten percent through transfer reaction to acceptor)
6 | O=C[C@@H](O)[C@@H](O)[C@H](O)[C@H](O)CO [D-Mannose] | − | − | − | ∀ (a saccharide-transferred product was detected in an amount less than one percent through transfer reaction to acceptor)
7 | O=C(CO)[C@H](O)[C@H](O)[C@H](O)CO [D-Psicose] | + (a saccharide-transferred product was detected in an amount over one percent but less than ten percent through transfer reaction to acceptor) | + (a saccharide-transferred product was detected in an amount over one percent but less than ten percent through transfer reaction to acceptor) | + (a saccharide-transferred product was detected in an amount over one percent but less than ten percent through transfer reaction to acceptor) | + (a saccharide-transferred product was detected in an amount over one percent but less than ten percent through transfer reaction to acceptor)
8 | O=C[C@H](O)[C@@H](O)[C@H](O)CO [D-Xylose] | ++ (a saccharide-transferred product was detected in an amount over ten percent through transfer reaction to acceptor) | ++ (a saccharide-transferred product was detected in an amount over ten percent through transfer reaction to acceptor) | ++ (a saccharide-transferred product was detected in an amount over ten percent through transfer reaction to acceptor) | + (a saccharide-transferred product was detected in an amount over one percent but less than ten percent through transfer reaction to acceptor)
9 | OCC(O)CO [Glycerol] | + (a saccharide-transferred product was detected in an amount over one percent but less than ten percent through transfer reaction to acceptor) | + (a saccharide-transferred product was detected in an amount over one percent but less than ten percent through transfer reaction to acceptor) | + (a saccharide-transferred product was detected in an amount over one percent but less than ten percent through transfer reaction to acceptor) | + (a saccharide-transferred product was detected in an amount over one percent but less than ten percent through transfer reaction to acceptor)
10 | O=C1O[C@H]([C@@H](O)CO)C(O)=C1O [L-Ascorbic acid] | + (a saccharide-transferred product was detected in an amount over one percent but less than ten percent through transfer reaction to acceptor) | + (a saccharide-transferred product was detected in an amount over one percent but less than ten percent through transfer reaction to acceptor) | + (a saccharide-transferred product was detected in an amount over one percent but less than ten percent through transfer reaction to acceptor) | + (a saccharide-transferred product was detected in an amount over one percent but less than ten percent through transfer reaction to acceptor)
11 | C[C@H](O)[C@H](O)[C@@H](O)[C@@H](O)C=O [L-Rhamnose] | − | − | − | −
